Data published in paper PMC9176662, “Design, synthesis, molecular modeling and biological evaluation of novel Benzoxazole-Benzamide conjugates via a 2-Thioacetamido linker as potential anti-proliferative agents, VEGFR-2 inhibitors and apoptotic inducers” (Journal of Enzyme Inhibition and Medicinal Chemistry, 2022).

Legend:
Assay type in all cases: cell-based, human
MCF-7 cells [1] = assay: Annexin V-FITC/PI apoptosis assay, MCF-7; settings: for %Apoptosis %Early: control 0.47; for %Apoptosis %Late: control 1.34; for %Necrosis: control 1.6; for %Apoptosis %Total: control 3.41
Protocol: 2.4. Annexin V-FITC/PI apoptosis assay.
For this study, annexin V-FITC / PI apoptosis detection kit was used; HCT -116 and MCF-7 cells were stained with annexin V fluorescein isothiocyanate (FITC) and propidium iodide (PI) counter-stained.1 x 10^5 HCT-116 cells were 48 h incubated with compound 1 or 11, trypsinized, washed with phosphate-buffered saline (PBS), stained in the dark at 37 °C for 15 min utes.
Finally, the cells analyzed with a cytometer of FACS Caliber flow.

Bcl-2 = assay: Western blot of Bcl-2 expression in MCF-7; settings: MCF-7, Western blot, normalised to β-actin
Description: It is well known that the anti-apoptotic proteins Bcl-2 and Bcl-xL are mainly overexpressed in various types of cancer, causing survival of cancer cells and/or drug resistance. Therefore, inhibition of these proteins expression leads to cancer cell death and has been used as a strategy for anticancer drug development. In this study, the impact of compounds 1 and 11 on Bcl-2 and Bcl-xL expression in HCT-116 and MCF-7 cancer cell lines was examined using Western blot analysis and all the data were normalised to β-actin (Figure 9).
2.5. Impact of compounds 1 and 11 on the level of anti-apoptotic markers (Bcl-2, and Bcl-xL).
Gel electrophoresis and immuno-blot analysis of proteins (Western Blot) method was used to examine the effect of compounds 1 and 11 on the level of anti-apoptotic markers (Bcl-2, and Bcl-xL). […]
The cells were then immediately frozen at −20 °C for 1 h for further lysis and collected by cell scraper and sonicated 2×10s. Total protein concentrations were determined colorimetrically using Bradford method before proceeding to the western blotting. […] Briefly, the membranes were incubated for 1 min with a mixture of equal volumes from ECL solution A and ECL solution B. The chemiluminescent signals were captured using a CCD camera-based imager (Chemi Doc imager, Biorad, USA), and the band intensities were then measured with β-actin as an internal reference protein. […]

MCF-7 cells [2] = assay: Cell cycle analysis by DNA flow cytometry, MCF-7; settings: MCF7, 24 h, compound at its IC50 (supplement: 10 μM); for %Pre-G1: control 3.41; for %G2-M: control 16.53; for %S: control 28.33; for %G0-G1: control 55.14
Protocol: It is clearly known that generally the cytotoxic agents exert their anti-proliferative effect via cell cycle arrest at a specific phase. In the present study, due to the excellent in-vitro anti-proliferative activity of conjugates 1 and 11 against both HCT-116 and MCF-7 cancer cell lines as well as their excellent VEGFR-2 inhibitory activities, cell cycle analysis have been carried out for both compounds. […]
2.3. Cell cycle analysis.
HCT-116 and MCF-7 cells were seeded at concentrations of 1 x 10^5 cells per well in a 6-well plate, and then incubated for 24 h. The cells were treated for 24 h with vehicles (0.1 percent DMSO) or 10 μM of compounds 1 or 11. Using ice-cold, 70 percent ethanol at 4 °C, cells were harvested and fixed for 12 h. Ethanol was removed, and the cells were washed by cold PBS.
Then, the cells were incubated in 0.5 mL of PBS containing 1 mg/mL Ranse for 30 min at 37 °C.
In the dark, the cells were stained with propidium iodide for 30 min. Flow cytometer was then used to detect contents of DNA [63]. […]

Compound	total increase in apoptosis compared to the control (MCF-7 cells [1])	%Apoptosis %Early (MCF-7 cells [1]) [%]	%Apoptosis %Late (MCF-7 cells [1]) [%]	%Necrosis (MCF-7 cells [1]) [%]	%Apoptosis %Total (MCF-7 cells [1]) [%]	Bcl-2 expression (Bcl-2)	%Pre-G1 (MCF-7 cells [2]) [%]	%G2-M (MCF-7 cells [2]) [%]	%S (MCF-7 cells [2]) [%]	%G0-G1 (MCF-7 cells [2]) [%]
O=C(CSc1nc2ccccc2o1)Nc1ccc(C(=O)NC2CCCCC2)cc1 [Compound 1]	approximately 5.8 fold	6.02	12.17	1.59	19.78	inhibited	19.78	29.62	29.72	40.66
O=C(CSc1nc2cc(Cl)ccc2o1)Nc1ccc(C(=O)Nc2ccc(Cl)cc2)cc1 [Compound 11]	~5.0 fold	4.93	10.26	1.74	16.93	inhibited	16.93	25.24	30.92	43.84
